In a compilation of properties of binary mixtures (doi:10.1007/s10953-017-0578-y):

Assay: xn = mol fraction of the nth substance listed
Conditions: 100 kPa

CNc1ccccc1 + CC[n+]1ccn(C)c1.F[B-](F)(F)F
speed of sound [m/s]
Conditions | x2 = 0 | x2 = 0.1046 | x2 = 0.2048 | x2 = 0.3057 | x2 = 0.3985 | x2 = 0.5064 | x2 = 0.6045 | x2 = 0.6994 | x2 = 0.8005 | x2 = 0.9084
293.15 K | – | 1603.9 | 1617.6 | 1627.9 | 1632.7 | 1632.5 | – | 1627.7 | 1625.9 | 1627
303.15 K | – | 1568.9 | 1586.9 | – | 1603.8 | 1604.7 | 1604.1 | 1602.6 | 1601.3 | 1604
313.15 K | 1511.7 | – | – | 1567 | 1574.4 | 1576.1 | 1578.3 | 1577.9 | 1576.2 | 1579.4
323.15 K | 1476.4 | 1500.3 | 1523.6 | 1537.2 | 1545.6 | 1549 | – | 1551.6 | 1550.4 | 1553.3

CC[n+]1ccn(C)c1.F[B-](F)(F)F + CNc1ccccc1
x1 = 1
Conditions | speed of sound [m/s]
293.15 K | 1632.6
303.15 K | 1609.5
313.15 K | 1586.2
323.15 K | 1563.4
